In patent publication US20250095772A1, “METHOD FOR IMPROVING THROUGHPUT OF COMPOUND-PROTEIN INTERACTION EXPERIMENTS” (SOUTHERN UNIVERSITY OF SCIENCE AND TECHNOLOGY, priority 2022, published 2025):

Key:
[1] = system: K562 cell lysate; test: Single temperature point TPP target identification, 15 drugs pooled into 9 mixture systems (Example 1); format: binding; details: 15 compounds in 9 mixture systems (each in 3), each drug 40 μM, heated at 52° C. for 3 minutes, LASSO β threshold 0.1, — = no target identified
Source text: In step S01: Fifteen drugs to be tested (i.e., the compounds to be tested) were given: Palbociclib, Panobinostat, Raltitrexed, Methotrexate, Vemurafenib, Fimepinostat, SCIO-469, SL-327, 5-Fluorouracil, Olaparib, Belumosudil, OTS964, Parthenolide, CCT137690, […], which are sequentially numbered as compound to be tested 1, compound to be tested 2, compound to be tested 3, . . . and compound to be tested 15. It is assumed here that the above fifteen compounds to be tested are mixed into nine mixture systems: mixture system 1, mixture system 2, mixture system 3, . . . and mixture system 9, and each compound to be tested was included in three different mixture systems, that is, m=9, n=15, a=3. The nine mixture systems are mapped into a 9x15 initial permutation matrix A of the compounds to be tested, and the initial permutation matrix A is randomly initialized so that the numerical values in the matrix A are random floating-point numbers between 0 and 1.
The initial permutation matrix A of the compounds to be tested was iteratively optimized through a genetic algorithm to minimize the value of the objective function L; the permutation matrix A is subjected to the binary conversion in step S02 when the value of the objective function L is the minimum to obtain the optimized permutation matrix S (as shown in FIG. 3), the optimized permutation matrix S is the final permutation matrix. […] In FIGS. 2 and 3, the black grid represents the numerical value 1, and the white grid represents the numerical value 0. During the iteration process, the value of the objective function L decreases to a constant value as the number of iterations increases, as shown in FIG. 4. The fifteen compounds to be tested were mixed according to the finally-obtained 9×15 optimized permutation matrix shown in FIG. 3, and nine mixture systems were obtained.
(§1) In step S04: DMSO as a solvent was added to each mixture system in step S03 to enable a concentration of each drug to reach 40 μM, and then the single temperature point TPP method is applied to measure the interaction between each mixture system and the protein. The specific experimental steps are that: equal amounts of K562 cell lysate were mixed with a drug mixture system, incubated at room temperature for 10 minutes, then heated at 52° C. for 3 minutes, and then quickly cooled to 4° C. on a PCR machine. The samples were centrifuged at 21,000 rcf for 20 minutes at 4° C., and the supernatant was collected. According to the mass spectrometry-based proteomics quantification method, each sample was enzymatically digested and TMT labeled, and then the LC-MS mass spectrometry was used for measurement to obtain the content of protein. Based on the principle of the TPP method, the thermal stability of the protein can be improved through a combination with compounds. Therefore, if a protein can interact with the mixed system, then the content of protein measured by mass spectrometry will be higher, and vice versa.
(§2) In step S05: Nine measured values Yi obtained from the interaction between the nine mixture systems and the target protein are marked as response vectors Y; the response vectors Y were normalized so that the numerical values of the response vectors are between 0 and 1. The response vector Y and the permutation matrix S meet a relational expression of:
Where, Yi represents a response value of the ability of the mixture system identified as i among the nine mixture systems to interact with the target protein, and βj is a contribution of the compound to be tested identified as j in the mixture system identified as i to the response value of the mixture system identified as i, βj is a coefficient vector with a length n, and R is a residual vector with a length […].
the LASSO regression method is applied to obtain an optimal solution of β based on the following expression: […]

[2] = system: K562 cell lysate; test: Single temperature point TPP target identification, 25 drugs pooled into 14 mixture systems (Example 2); format: binding; details: 25 compounds in 14 mixture systems (each in 4), remaining steps as Example 1 (40 μM, K562 cell lysate, 52° C., LASSO β threshold 0.1); — = no target identified
Experimental: as §1, with “Based on the principle of the TPP method, the thermal stability of the protein can be improved through a combination with compounds.” left out
as §2
Where, λ is a penalty term, which is used to adjust a compression degree of β, in this embodiment, the value of λ is 0.1 and the threshold is 0.1.
It is assumed that the above twenty-five compounds to be tested are mixed into fourteen mixture systems: mixture system 1, mixture system 2, mixture system 3, . . . and mixture system 14. Each compound to be tested was included in four different mixture systems. That is, m=14, n=25, a=4. […] In FIG. 5, the black grid represents the numerical value of 1, and the white grid represents the numerical value of 0. […] The twenty-five compounds to be tested were mixed according to the finally obtained 14×25 optimized permutation matrix S shown in FIG. 5, to obtain fourteen mixture systems.

SMILES	Successfully Identified Target(s) [1]	Successfully Identified Target(s) [2]
Cc1cc(CN2CCN(c3c(Br)cnc4nc(-c5ccc(N6CCN(C)CC6)cc5)[nH]c34)CC2)no1 [CCT137690]	AURKA	–
COC(=O)N[C@@H](C)CNc1nccc(-c2cn(C(C)C)nc2-c2cc(Cl)cc(NS(C)(=O)=O)c2F)n1 [Encorafenib]	–	BRAF
COc1ccc(-c2nc(N3CCOCC3)c3sc(CN(C)c4ncc(C(=O)NO)cn4)cc3n2)cn1 [Fimepinostat]	HDAC1	HDAC1
CN(Cc1cnc2nc(N)nc(N)c2n1)c1ccc(C(=O)N[C@@H](CCC(=O)O)C(=O)O)cc1 [Methotrexate]	DHFR	DHFR
O=C(c1cc(Cc2n[nH]c(=O)c3ccccc23)ccc1F)N1CCN(C(=O)C2CC2)CC1 [Olaparib]	PARP1	PARP1
CC(C)(C)Cn1c(N)nc2ccc(-c3[nH]c(C(C)(C)C)nc3-c3ccc(F)cc3)nc21 [Ralimetinib]	MAPK14	MAPK14
Cc1nc2ccc(CN(C)c3ccc(C(=O)N[C@@H](CCC(=O)O)C(=O)O)s3)cc2c(=O)[nH]1 [Raltitrexed]	TYMS	TYMS
C[C@@H]1CN(Cc2ccc(F)cc2)[C@@H](C)CN1C(=O)c1cc2c(C(=O)C(=O)N(C)C)cn(C)c2cc1Cl [SCIO-469]	MAPK14	MAPK14
